In ChEMBL document CHEMBL1201861, “Genomics of Drug Sensitity in Cancer screening data, Wellcome Trust Sanger Institute”:
pIC50: −log10 of the molar value.

Columns and labels:
Assay in all cases: cells
Capan-2 = assay type: functional, cell-based, Homo sapiens; settings: Homo sapiens, Capan-2;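 further: Capan-2 cell growth inhibition, read out with a viability assay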
Description: SANGER: Inhibition of human Capan-2 cell growth in a cell viability assay.

KOSC-2 = assay type: functional, cell-based, Homo sapiens; settings: Homo sapiens, KOSC-2;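 further: growth inhibition of KOSC-2 cells, read out by a cell viability assay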
SK-PN-DW = assay type: functional, cell-based; settings: Homo sapiens;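 further: growth inhibition measured with a viability assay on these cells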
Description: SANGER: Inhibition of human SK-PN-DW cell growth in a cell viability assay.

TYK-nu = assay type: functional, cell-based, Homo sapiens; settings: Homo sapiens, TYK-nu;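 further: growth inhibition of human TYK-nu cells, read out by a cell viability assay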
Description: SANGER: Inhibition of human TYK-nu cell growth in a cell viability assay.

Ca-Ski = assay type: functional, cell-based; settings: Homo sapiens;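 further: cell viability assay measuring inhibition of Ca-Ski cell growth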
Description: SANGER: Inhibition of human Ca-Ski cell growth in a cell viability assay.

WM-115 = assay type: functional, cell-based, Homo sapiens; settings: Homo sapiens, WM-115
Description: SANGER: Inhibition of human WM-115 cell growth in a cell viability assay.

A2780 = assay type: functional, cell-based, Homo sapiens; settings: Homo sapiens, A2780;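 further: growth inhibition of A2780 cells, read out with a cell viability assay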
Description: SANGER: Inhibition of human A2780 cell growth in a cell viability assay.

PANC-08-13 = assay type: functional, cell-based, Homo sapiens; settings: Homo sapiens, PANC-08-13;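 further: cell growth inhibition, measured with a cell viability assay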
Description: SANGER: Inhibition of human PANC-08-13 cell growth in a cell viability assay.

HC-1 = assay type: functional, cell-based; settings: Homo sapiens;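 further: growth inhibition of HC-1 cells measured by a cell viability assay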
Description: SANGER: Inhibition of human HC-1 cell growth in a cell viability assay.

EFO-27 = assay type: functional, cell-based, Homo sapiens; settings: Homo sapiens, EFO-27;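 further: growth inhibition of EFO-27 cells, read out with a cell viability assay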
Description: SANGER: Inhibition of human EFO-27 cell growth in a cell viability assay.

BHT-101 = assay type: functional, cell-based, Homo sapiens; settings: Homo sapiens, BHT-101
KYSE-450 = assay type: functional, cell-based; settings: Homo sapiens;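 further: cell growth inhibition measured by a viability assay in human KYSE-450 cells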
Description: SANGER: Inhibition of human KYSE-450 cell growth in a cell viability assay.

ES5 = assay type: functional, cell-based, Homo sapiens; settings: Homo sapiens, ES5;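 further: growth inhibition of human ES5 cells, read out by a cell viability assay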
NB14 = assay type: functional, cell-based; settings: Homo sapiens;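 further: growth inhibition of NB14 cells measured with a cell viability assay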
Description: SANGER: Inhibition of human NB14 cell growth in a cell viability assay.

TE-6 = assay type: functional, cell-based, Homo sapiens; settings: Homo sapiens, TE-6;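 further: growth inhibition of TE-6 cells, read out with a cell viability assay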
Description: SANGER: Inhibition of human TE-6 cell growth in a cell viability assay.

ETK-1 = assay type: functional, cell-based, Homo sapiens; settings: Homo sapiens, ETK-1;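 further: growth inhibition of human ETK-1 cells, read out with a cell viability assay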
Description: SANGER: Inhibition of human ETK-1 cell growth in a cell viability assay.

NB5 = assay type: functional, cell-based, Homo sapiens; settings: Homo sapiens, NB5;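 further: growth inhibition of NB5 cells, read out as cell viability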
Description: SANGER: Inhibition of human NB5 cell growth in a cell viability assay.

SK-OV-3 = assay type: functional, cell-based, Homo sapiens; settings: Homo sapiens, SK-OV-3;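 further: growth inhibition of SK-OV-3 human cells, read out with a cell viability assay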
Description: SANGER: Inhibition of human SK-OV-3 cell growth in a cell viability assay.

Ramos-2G6-4C10 = assay type: functional, cell-based; settings: Homo sapiens;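 further: growth inhibition of the cell line, measured by a cell viability read-out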
Description: SANGER: Inhibition of human Ramos-2G6-4C10 cell growth in a cell viability assay.

NH-12 = assay type: functional, cell-based, Homo sapiens; settings: Homo sapiens, NH-12;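 further: growth inhibition of NH-12 cells, read out with a cell viability assay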
Description: SANGER: Inhibition of human NH-12 cell growth in a cell viability assay.

DBTRG-05MG = assay type: functional, cell-based, Homo sapiens; settings: Homo sapiens, DBTRG-05MG;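 further: cell viability assay measuring growth inhibition of human DBTRG-05MG cells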
Description: SANGER: Inhibition of human DBTRG-05MG cell growth in a cell viability assay.

DMS-273 = assay type: functional, cell-based, Homo sapiens; settings: Homo sapiens, DMS-273
Description: SANGER: Inhibition of human DMS-273 cell growth in a cell viability assay.

VMRC-RCZ = assay type: functional, cell-based; settings: Homo sapiens;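 further: growth inhibition measured with a cell viability assay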
NCI-H520 = assay type: functional, cell-based, Homo sapiens; settings: Homo sapiens, NCI-H520;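 further: growth inhibition of NCI-H520 cells, measured by a cell viability assay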
Description: SANGER: Inhibition of human NCI-H520 cell growth in a cell viability assay.

LB771-HNC = assay type: functional, cell-based, Homo sapiens; settings: Homo sapiens, LB771-HNC;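 further: growth inhibition of LB771-HNC human cells, read out with a cell viability assay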
ES4 = assay type: functional, cell-based, Homo sapiens; settings: Homo sapiens, ES4;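 further: growth inhibition of human ES4 cells, read out by a cell viability assay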
Description: SANGER: Inhibition of human ES4 cell growth in a cell viability assay.

GOTO = assay type: functional, cell-based, Homo sapiens; settings: Homo sapiens, GOTO;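 further: growth inhibition of GOTO cells, read out by a cell viability assay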
Description: SANGER: Inhibition of human GOTO cell growth in a cell viability assay.

TGBC24TKB = assay type: functional, cell-based, Homo sapiens; settings: Homo sapiens, TGBC24TKB;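 further: growth inhibition of human TGBC24TKB cells, read out with a cell viability assay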
Description: SANGER: Inhibition of human TGBC24TKB cell growth in a cell viability assay.

HH = assay type: functional, cell-based; settings: Homo sapiens
Description: SANGER: Inhibition of human HH cell growth in a cell viability assay.

ACN = assay type: functional, cell-based, Homo sapiens; settings: Homo sapiens, ACN;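 further: growth inhibition of the human ACN cell line, read out via cell viability testing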
Description: SANGER: Inhibition of human ACN cell growth in a cell viability assay.

BE-13 = assay type: functional, cell-based; settings: Homo sapiens;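 further: growth inhibition of human BE-13 cells, measured with a cell viability assay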
Description: SANGER: Inhibition of human BE-13 cell growth in a cell viability assay.

TE-11 = assay type: functional, cell-based, Homo sapiens; settings: Homo sapiens, TE-11;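 further: growth inhibition of human TE-11 cells, read out by a cell viability assay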
Description: SANGER: Inhibition of human TE-11 cell growth in a cell viability assay.

SCC-4 = assay type: functional, cell-based, Homo sapiens; settings: Homo sapiens, SCC-4;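 further: growth inhibition of human SCC-4 cells, read out as cell viability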
Description: SANGER: Inhibition of human SCC-4 cell growth in a cell viability assay.

MV4-11 = assay type: functional, cell-based, MV-4-11; settings: Homo sapiens;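 further: cell viability readout measuring growth inhibition of human MV-4-11 cells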
Description: SANGER: Inhibition of human MV-4-11 cell growth in a cell viability assay.

HCC70 = assay type: functional, cell-based, Homo sapiens; settings: Homo sapiens, HCC70;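 further: cell viability assay measuring how strongly the compound suppresses proliferation of HCC70 cells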
Description: SANGER: Inhibition of human HCC70 cell growth in a cell viability assay.

NCI-H1563 = assay type: functional, cell-based, Homo sapiens; settings: Homo sapiens, NCI-H1563;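 further: growth inhibition of human NCI-H1563 cells, read out with a cell viability assay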
Description: SANGER: Inhibition of human NCI-H1563 cell growth in a cell viability assay.

HCC1569 = assay type: functional, cell-based, Homo sapiens; settings: Homo sapiens, HCC1569;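 further: growth inhibition of human HCC1569 cells, read out with a cell viability assay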
Description: SANGER: Inhibition of human HCC1569 cell growth in a cell viability assay.

U2OS = assay type: functional, cell-based, Homo sapiens, U-2-OS; settings: Homo sapiens, U2OS;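 further: growth inhibition of human U-2-OS cells, determined with a cell viability assay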
Description: SANGER: Inhibition of human U-2-OS cell growth in a cell viability assay.

RH-1 = assay type: functional, cell-based, Homo sapiens; settings: Homo sapiens, RH-1;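 further: growth inhibition of human RH-1 cells, read out with a cell viability assay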
NCI-H2126 = assay type: functional, cell-based, Homo sapiens; settings: Homo sapiens, NCI-H2126;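 further: growth inhibition of the cancer cell line, determined with a cell viability readout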
Description: SANGER: Inhibition of human NCI-H2126 cell growth in a cell viability assay.

NUGC-3 = assay type: functional, cell-based, Homo sapiens; settings: Homo sapiens, NUGC-3;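 further: growth inhibition of human NUGC-3 cells, read out with a cell viability assay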
Description: SANGER: Inhibition of human NUGC-3 cell growth in a cell viability assay.

LB373-MEL-D = assay type: functional, cell-based, Homo sapiens; settings: Homo sapiens, LB373-MEL-D;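 further: growth inhibition of the cell line, read out in a cell viability assay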
Description: SANGER: Inhibition of human LB373-MEL-D cell growth in a cell viability assay.

DoTc2-4510 = assay type: functional, cell-based, Homo sapiens; settings: Homo sapiens, DoTc2-4510
D283 Med = assay type: functional, cell-based, Homo sapiens; settings: Homo sapiens, D283 Med
Description: SANGER: Inhibition of human D-283MED cell growth in a cell viability assay.

COLO-829 = assay type: functional, cell-based, Homo sapiens; settings: Homo sapiens, COLO-829
Description: SANGER: Inhibition of human COLO-829 cell growth in a cell viability assay.

NB12 = assay type: functional, cell-based, Homo sapiens; settings: Homo sapiens, NB12;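 further: growth inhibition of human NB12 cells, read out by a cell viability assay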
Description: SANGER: Inhibition of human NB12 cell growth in a cell viability assay.

MKN-45 = assay type: functional, cell-based, Homo sapiens; settings: Homo sapiens, MKN-45;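 further: growth inhibition of human MKN-45 cells, measured with a cell viability assay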
CAMA-1 = assay type: functional, cell-based, Homo sapiens; settings: Homo sapiens, CAMA-1;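 further: growth inhibition of CAMA-1 cells, read out with a cell viability assay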
Description: SANGER: Inhibition of human CAMA-1 cell growth in a cell viability assay.

LK-2 = assay type: functional, cell-based, Homo sapiens; settings: Homo sapiens, LK-2;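 further: growth inhibition of LK-2 cells, read out with a viability assay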
Description: SANGER: Inhibition of human LK-2 cell growth in a cell viability assay.

SAS = assay type: functional, cell-based, Homo sapiens; settings: Homo sapiens, SAS;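 further: growth inhibition of SAS cells, read out with a cell viability assay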
Description: SANGER: Inhibition of human SAS cell growth in a cell viability assay.

A3-KAW = assay type: functional, cell-based; settings: Homo sapiens;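 further: growth inhibition of human A3-KAW cells, read out with a cell viability assay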
Description: SANGER: Inhibition of human A3-KAW cell growth in a cell viability assay.

Measured: pIC50

Cn1cc(C2=C(c3ccc(Cl)cc3Cl)C(=O)NC2=O)c2ccccc21 [SB-216763]
5.04: SK-OV-3
5.57: MV4-11
< 5.00: all other assays above

Nc1ccn([C@@H]2O[C@H](CO)[C@@H](O)[C@@H]2O)c(=O)n1 [CYTARABINE]
6.06: Ramos-2G6-4C10
5.84: DMS-273
6.07: A3-KAW
5.96: KYSE-450
6.08: BE-13
6.67: ES4
6.38: SK-PN-DW
5.87: VMRC-RCZ
6.97: SAS
6.61: ES5
5.80: DoTc2-4510
5.97: HC-1
5.73: TGBC24TKB | MV4-11 | COLO-829
6.48: RH-1
5.71: EFO-27
6.18: TYK-nu
6.46: U2OS
6.51: NB14
6.23: NUGC-3
5.93: NH-12
6.02: SCC-4
6.79: A2780
6.44: D283 Med
6.34: NB5 | LK-2
7.38: BHT-101
6.19: KOSC-2
5.78: MKN-45
6.37: GOTO
< 5.70: all other assays above

CN(C)C/C=C/C(=O)Nc1cc2c(Nc3ccc(F)c(Cl)c3)ncnc2cc1O[C@H]1CCOC1 [AFATINIB]
7.22: KYSE-450
6.42: NUGC-3
6.32: SAS
6.40: TE-6
7.29: EFO-27
6.49: DoTc2-4510
< 6.30: all other assays above

O=C(NOCC1CC1)c1ccc(F)c(F)c1Nc1ccc(I)cc1Cl [CI-1040]
5.02: MKN-45
6.31: WM-115
5.32: EFO-27
5.44: U2OS
5.99: TYK-nu
5.06: DBTRG-05MG
5.26: NUGC-3
5.21: MV4-11
5.69: HCC70
5.13: BE-13
5.34: NB5
6.30: A2780
6.54: BHT-101
5.33: NH-12
5.79: COLO-829
5.05: ES4 | NCI-H2126
5.12: NB14
6.57: ACN
5.15: DoTc2-4510
5.35: HH
< 5.00: all other assays above
